Results taken from PubChem BioAssay (NCI).
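Tested at 5 concentrations; 48 h exposure; 96-well plates; endpoints linearly interpolated, else capped at highest concentration. Abbreviation: GI50, concentration required for 50% inhibition of growth. TGI is the concentration that stops growth completely.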

How the values were obtained:
Assay in all cases: NCI tumour cell line growth inhibition, 48 h
U251 CNS = test system: U251 CNS
CCRF-CEM leukemia = test system: CCRF-CEM leukemia
M14 melanoma = test system: M14 melanoma
SK-OV-3 ovarian = test system: SK-OV-3 ovarian
BT-549 breast = test system: BT-549 breast
K-562 leukemia = test system: K-562 leukemia
DU-145 prostate = test system: DU-145 prostate
HCT-15 colon = test system: HCT-15 colon
NCI-H226 lung = test system: NCI-H226 lung
MALME-3M melanoma = test system: MALME-3M melanoma

Structure (SMILES)	TGI (U251 CNS)	TGI (CCRF-CEM leukemia)	TGI (M14 melanoma)	TGI (SK-OV-3 ovarian)	TGI (BT-549 breast)	TGI (K-562 leukemia)	TGI (DU-145 prostate)	TGI (HCT-15 colon)	GI50 (U251 CNS)	GI50 (NCI-H226 lung)	TGI (NCI-H226 lung)	GI50 (M14 melanoma)	GI50 (SK-OV-3 ovarian)	GI50 (MALME-3M melanoma)	TGI (MALME-3M melanoma)	GI50 (BT-549 breast)	GI50 (DU-145 prostate)	GI50 (HCT-15 colon)	GI50 (CCRF-CEM leukemia)	GI50 (K-562 leukemia)
Cc1cc(Cl)cc2c(N=Nc3ccccc3[N+](=O)[O-])c(O)[nH]c12	> 100 µM	> 100 µM	> 100 µM	> 100 µM	> 100 µM	> 100 µM	> 100 µM	> 100 µM												
O=c1c2ccccc2c(Br)c(Br)c2ccccc12	29 µM		16.3 µM	> 100 µM	34.4 µM		15.8 µM	> 100 µM	12.6 µM	24.1 µM	79.5 µM	4.8 µM	38.3 µM	2.66 µM	7.65 µM	19 µM	4.02 µM	10.7 µM		
Nc1nc2sc3ccccc3c(=O)n2n1	> 100 µM	> 100 µM	> 100 µM	> 100 µM		> 100 µM		> 100 µM			> 100 µM				> 100 µM					
Cc1oc2c(C)c3oc(=O)cc(C)c3cc2c1CNC(=O)[C@@H]1OCCOCCOCCOCCOCCOC1C(=O)O (stereo partly drawn)	> 100 µM	> 100 µM	27.5 µM	> 100 µM		> 100 µM		> 100 µM			> 100 µM				> 100 µM					
CN(C)CCN(C)CC1COC(C)(C)O1 (stereo not drawn)	> 100 µM	> 100 µM	> 100 µM	> 100 µM		> 100 µM					> 100 µM				> 100 µM					
CCC1C(=O)OCc2c1cc1n(c2=O)Cc2cc3ccccc3nc2-1 (stereo not drawn)	> 43 µM		13.7 µM	> 100 µM	> 59.5 µM	> 100 µM	> 30.9 µM	> 100 µM			> 100 µM				> 100 µM					
CSc1cccc(-n2c3nc(=O)n(C)c(=O)c-3nc3ccccc32)c1	23.3 µM	42.7 µM	9.79 µM	96 µM		32.5 µM		23.3 µM			28.9 µM				11.4 µM					
COc1ccc(NC(=O)CC(=O)N2N=C(N(CCC#N)c3ccccc3Cl)CC2c2ccccc2)cc1 (stereo not drawn)	> 100 µM	> 100 µM	> 100 µM			> 100 µM		> 100 µM			> 100 µM				> 100 µM					
COc1ccc2c(c1)C(=O)N1CCOC1C2C(=O)O (stereo not drawn)	> 100 µM	> 100 µM	> 100 µM	> 100 µM		> 100 µM		> 100 µM												
NC(=O)C#CC#CC#CCO	3.72 µM		3.63 µM	25.5 µM		4.65 µM		3.5 µM			27.5 µM				3.72 µM					
COC(=O)C1CCC(Nc2ccc(C)cc2C)=N1 (stereo not drawn)	> 100 µM	> 100 µM	> 100 µM	> 100 µM		> 100 µM		> 100 µM			> 100 µM				> 100 µM					
CS(=O)(=O)OCC1OC(n2ccc(NC(=O)c3ccccc3)nc2=O)CC1OS(C)(=O)=O (stereo not drawn)	> 100 µM	> 100 µM	> 100 µM	> 100 µM	> 100 µM	> 100 µM	> 100 µM	> 100 µM			> 100 µM									
N#CC(C(=O)/C(=N/NC(=O)c1ccccc1O)C(C#N)c1ccccc1)c1ccccc1 (stereo not drawn)	> 100 µM		> 100 µM	> 100 µM				> 100 µM			> 100 µM				> 100 µM					
CCCCCCCC(=O)NCC(O)CNC(=O)CCCCCCC	> 100 µM	> 100 µM	> 100 µM	> 100 µM		> 100 µM		> 100 µM			> 100 µM				> 100 µM					
N#Cc1cccc(OCc2nc(N)nc(N)c2-c2ccc(Cl)c(Cl)c2)c1	> 100 µM	> 100 µM	> 100 µM	> 100 µM	> 100 µM	> 100 µM	> 100 µM	> 100 µM	0.749 µM	7.44 µM	> 100 µM	0.639 µM	9.56 µM			3.01 µM	4.08 µM	0.575 µM	2.03 µM	0.384 µM
N#CC(/C(=N/NC(=O)C(=O)NN)C(=O)Nc1nc([N+](=O)[O-])cs1)c1ccc(Cl)cc1 (stereo not drawn)	> 100 µM	> 100 µM	> 100 µM								> 100 µM				> 100 µM					
CC1OC(n2ccc(=O)[nH]c2=O)C=C(OC(=O)c2ccccc2)C1=O (stereo not drawn)	81.3 µM	> 100 µM	> 100 µM	> 100 µM		> 100 µM		> 100 µM							> 100 µM					
[Cl][Sn]([Cl])([c]1ccccc1)[c]1ccccc1	28.6 µM	5.76 µM	29 µM	31.6 µM		12.3 µM		23.2 µM	13.4 µM	17.7 µM	32.2 µM	15.3 µM	17.4 µM	2.68 µM	8.01 µM			10.3 µM	1.74 µM	2.69 µM
CCOc1ccccc1NC(=O)c1cc2ccccc2cc1O	11.6 µM	32.9 µM	11 µM			14.1 µM	14.5 µM	15.6 µM	3.11 µM	2.81 µM	10.8 µM	3.15 µM		2.3 µM	10.2 µM		3.71 µM	3.27 µM	2.58 µM	3.28 µM
Cc1ccccc1C1=[N+]([O-])c2ccccc2C1=O	31 µM	54.5 µM	32.4 µM	> 100 µM		45.7 µM		34.8 µM			30.7 µM				33.2 µM					
N#C/C(=N\Nc1ccc(Cl)cc1)C(=O)Nc1cc(-c2ccccc2)nn1-c1ccccc1	> 100 µM	> 100 µM	> 100 µM	6.66 µM	7.18 µM	> 100 µM	> 100 µM	> 100 µM	3.08 µM			3.7 µM	2.28 µM			2.52 µM	3.9 µM	2.14 µM	2.27 µM	1.72 µM
CCOc1ccc(NC(=O)C2=C(C)NC(C)=C(C(=O)Nc3ccc(OCC)cc3)C2c2ccc(O)c(OC)c2)cc1	> 100 µM	> 100 µM	> 100 µM	> 100 µM		> 100 µM					> 100 µM				> 100 µM					
